Source: US11179379B2, “Compositions and methods for hemoglobin production” (THE CHILDREN'S HOSPITAL OF PHILADELPHIA, priority 2017, dated 2021)

How the values were obtained:
eIF2αK1 = details: literature reports; cited from earlier work
[1] = system: HUDEP-2 expressing Cas9 cells; experiment: Combination of eIF2αK1 gRNA and pomalidomide, HbF positive cells; format: cell-based, human; details: pomalidomide in combination with eIF2αK1 inhibition (eIF2αK1 gRNA #3 or #5); three independent experiments
Procedure: FIG. 3 is a graph of the percentage of cells positive for HbF expression. HUDEP-2 expressing Cas9 cells were transduced with eIF2αK1 sgRNA #3, eIF2αK1 sgRNA #5, a gRNA targeting BCL11A exon 2, or a negative control gRNA. Cells were then incubated with or without pomalidomide. n=3.
Combination experiments with the immunomodulatory pomalidomide, which is an HbF inducer, were also performed. If eIF2αK1 inhibition works at least in part by altering protein translation, additive effects may be observed when using compounds that predominantly affect transcription of fetal globin genes. Briefly, HUDEP-2 expressing Cas9 cells were transduced with eIF2αK1 gRNA #3, eIF2αK1 gRNA #5, a gRNA targeting BCL11A exon 2, or a negative control gRNA. The cells were then incubated with or without pomalidomide. […] Indeed, the results with pomalidomide in combination with eIF2αK1 inhibition were very strong in three independent experiments, even stronger than those observed with Bcl11A inhibition and pomalidomide.

Molecule	inhibition of eIF2αK1 activity (eIF2αK1)	number of HbF positive cells [1]
C=CC1=C(C)c2cc3[n-]c(cc4[n-]c(cc5nc(cc1n2)C(C)=C5C=C)c(C)c4CCC(=O)O)c(CCC(=O)O)c3C.[Cl-].[Fe+3] [Fe(III)-hemin]	inhibit eIF2αK1 activity	
uroporphyrin	inhibit eIF2αK1 activity	
O=c1c(O)c(-c2ccc(O)c(O)c2)oc2cc(O)cc(O)c12 [Quercetin]	ATP-competitive kinase inhibitor of eIF2αK1	
C=CC1=C(C)/C(=C/C2=NC(=C\c3[nH]c(/C=C4\NC(=O)C(C)=C4C=C)c(C)c3CCC(=O)O)/C(CCC(=O)O)=C2C)NC1=O [biliverdin]	inhibit eIF2αK1 activity	
C=CC1=C(C)c2cc3[n-]c(cc4[n-]c(cc5nc(cc1n2)C(C)=C5C=C)c(C)c4CCC(=O)O)c(CCC(=O)O)c3C.[Fe+2] [Fe(II)-heme]	inhibit eIF2αK1 activity	
Nc1cccc2c1C(=O)N(C1CCC(=O)NC1=O)C2=O (stereo not drawn) [pomalidomide]		greatly increased
